From patent publication US6147097A, “Imidazole derivatives as anti-HIV agents” (Shionogi & Co., Ltd., priority 1994, dated 2000)
Converted amounts (≈) assume the structure as drawn. Like-named read-outs stand apart in the source and are kept apart here.

Key:
HIV (HTLV-IIIB strain) = experiment: microbe, parasite or virus in culture; format: cell-based; conditions: Human immunodeficiency virus 1, IIIB, MT4, 120 h
Summary of the method: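 Protection from virus was read as viable-cell MTT conversion to formazan after 5 days at 37° C. The cultures contained MT-4 cells (3.5×10^4/well), compound dilutions and 60 pfu HIV per well.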

[1] = cytotoxicity in MT-4 cells (MTT, culture medium in place of HIV); format: cell-based; conditions: human
Summary of the method: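 Uninfected readout: compound-treated MT-4 cultures, 3.5×10^4 cells/well, received medium in place of virus and were kept 5 days at 37° C. Viability measured by 1 h MTT reduction, solubilized formazan read at 560/690 nm relative to control wells.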

[2] = target: T1, purified recombinant HIV-1 reverse transcriptase (Human immunodeficiency virus type 1 group M subtype B, UniProt P04585); experiment: reverse transcriptase inhibition, poly(rA)/(dT) template primer, [3H]dTTP uptake; format: biochemical
T1 construct: purified recombinant HIV-1 reverse transcriptase; made in house; host or cells: Escherichia coli
Summary of the method: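 Inhibition reported as percent reduction of [3H]dTTP incorporation relative to solvent control, after 1 h at 37 °C at pH 8.3. Recombinant RT from E. coli, poly(rA) template with oligo(dT) primer, 4 μM unlabeled dTTP as substrate; product collected on DEAE filter mats.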

[3] = MT-4 cells, 60 pfu HIV per well, 37° C., 5 days, MTT, Tables 1 and 2, read-out: EC50
[4] = MT-4 cells, no virus, 37° C., 5 days, MTT, Table 3, read-out: CC50

Row | Compound | EC50 (HIV (HTLV-IIIB strain); [3]) [µg/mL] | CC50 at 120 h [1, 4] [µg/mL] | IC50 [2] [µM] | CC50 at 120 h ([1]; mt-4 cells) [µg/mL] | EC50 (HIV (HTLV-IIIB strain)) [µg/mL] | IC50 ([2]; read-out: RT IC50, pH 8.3, 37° C., 1 hour, Tables 5 and 6) [µM]
1 | CC(=O)OCCOCc1nc(C(C)C)c(Sc2cc(Cl)cc(Cl)c2)n1C [Compound I-60, 2-{[5-(3,5-dichlorophenylthio)-4-isopropyl-1-methylimidazol-2-yl]methoxy} ethyl acetate] | ≥ 0.5 | 12.5 to 25 | > 240 | – | – | –
2 | CC(C)c1nc(COCCOC(N)=O)n(C)c1Sc1cc(Cl)cc(Cl)c1 [Compound I-61, (2-carbamoyloxy)ethoxymethyl-5-(3,5-dichlorophenylthio)-4-isopropyl-1-methyl-1H-imidazole] | 0.5 (≈ 1.2 µM) | 6.3 to 12.5 (≈ 15.1 to 29.9 µM) | 185 | – | – | –
3 | CCn1c(COCCOC(C)=O)nc(C(C)C)c1Sc1cc(Cl)cc(Cl)c1 [Compound I-62, 2-{[5-(3,5-dichlorophenylthlio)-1-ethyl-4-isopropyl-1H-imidazol-2-yl]methoxy} ethyl acetate] | 0.03 to 0.06 | 12.5 to 25 | 15.8 | – | – | –
4 | CCn1c(COCCOC(N)=O)nc(C(C)C)c1Sc1cc(Cl)cc(Cl)c1 [Compound I-63, 2-(2-carbamoyloxyethoxy)methyl-5-(3,5-dichlorophenylthio)-1-ethyl-4-isopropyl-1H-imidazole] | 0.25 (≈ 0.578 µM) | 12.5 (≈ 28.9 µM) | 10.9 | – | – | –
5 | CC(C)c1nc(CN)n(C)c1Sc1cc(Cl)cc(Cl)c1.O=C(O)C(=O)O [Compound I-66, 2-aminomethyl-5-(3,5-dichlorophenylthio)-4-isopropyl-1-methylimidazole oxalate] | 0.016 | 6.3 to 12.5 | 1.64 | – | – | –
6 | CC(C)c1nc(CN)n(C)c1Sc1cccc([N+](=O)[O-])c1 [Compound I-67, 2-aminomethyl-4-isopropyl-1-methyl-5-(3-nitrophenylthio)-1H-imidazole] | 0.13 to 0.25 (≈ 0.424 to 0.816 µM) | 12.5 to 25 (≈ 40.8 to 81.6 µM) | 17.6 | – | – | –
7 | CC(C)c1nc(CN)n(C)c1Sc1cccc(Cl)c1.Cl [Compound I-69, 2-aminomethyl-5-(3-chlorophenylthio)-4-isopropyl-1-methyl-1H-imidazole hydrochloride] | 0.25 | – | 6.92 | 6.3 | – | –
8 | CC(C)c1nc(CN)n(Cc2ccccc2)c1Sc1cc(Cl)cc(Cl)c1 [Compound I-70, 2-aminomethyl-1-benzyl-5-(3,5-dichlorophenylthio)-4-isopropylimidazole] | 0.03 (≈ 0.0738 µM) | 6.3 to 12.5 (≈ 15.5 to 30.8 µM) | 4.43 | – | – | –
9 | CCn1c(CN)nc(C(C)C)c1Sc1cc(Cl)cc(Cl)c1 [Compound I-71, 2-aminomethyl-5-(3,5-dichlorophenylthio)-1-ethyl-4-isopropyl-1H-imidazole] | 0.008 (≈ 0.0232 µM) | 1 to 10 (≈ 2.9 to 29 µM) | 0.987 | – | – | –
10 | CC(C)c1nc(CN)n(C(C)C)c1Sc1cc(Cl)cc(Cl)c1 [Compound I-72, 2-aminomethyl-5-(3,5-dichlorophenylthio)-1,4-diisopropylimidazole] | 0.03 to 0.06 (≈ 0.0837 to 0.167 µM) | 1 to 10 (≈ 2.79 to 27.9 µM) | 2.23 | – | – | –
11 | CCn1c(CN)nc(C(C)C)c1Sc1cccc(Cl)c1 [Compound I-73, 2-aminomethyl-5-(3-chlorophenylthio)-1-ethyl-4-isopropylimidazole] | 0.016 (≈ 0.0516 µM) | – | 0.807 | 6.3 (≈ 20.3 µM) | – | –
12 | CC(C)c1nc(CN)n(C)c1Sc1ccccc1 [Compound I-74, 2-aminomethyl-4-isopropyl-1-methyl-5-phenylthioimidazole] | 0.25 (≈ 0.956 µM) | 12.5 to 25 (≈ 47.8 to 95.6 µM) | 21.8 | – | – | –
13 | CCn1c(CN)nc(C(C)C)c1Sc1ccccc1 [Compound I-75, 2-aminomethyl-1-ethyl-4-isopropyl-5-phenylthio-1H-imidazole] | 0.01 (≈ 0.0363 µM) | – | 0.799 | 16.5 (≈ 59.9 µM) | – | –
14 | CC(C)c1nc(CN)n(CC(F)(F)F)c1Sc1cc(Cl)cc(Cl)c1 [Compound I-76, 2-aminomethyl-5-(3,5-dichlorophenylthio)-4-isopropyl-1-(2,2,2-trifluoroethyl)-1H-imidazole] | 0.016 (≈ 0.0402 µM) | 6.3 to 12.5 (≈ 15.8 to 31.4 µM) | 8.79 | – | – | –
15 | CC(C)c1nc(CN(C)C)n(C)c1Sc1cc(Cl)cc(Cl)c1 [Compound I-78, 5-(3,5-dichlorophenylthio)-2-dimethylaminomethyl-4-isopropyl-1-methyl-1H-imidazole] | 1 (≈ 2.79 µM) | 1 to 10 (≈ 2.79 to 27.9 µM) | 129 | – | – | –
16 | CC(C)c1nc(CNCCO)n(C)c1Sc1cc(Cl)cc(Cl)c1 [Compound I-79, 2-{[5-(3,5-dichlorophenylthio)-4-isopropyl-1-methyl-1H-imidazol-2-yl]methylamino} ethanol] | 0.25 (≈ 0.668 µM) | 1 to 10 (≈ 2.67 to 26.7 µM) | 34.5 | – | – | –
17 | CC(C)c1nc(CC(=O)O)n(C)c1Sc1cc(Cl)cc(Cl)c1 [Compound I-80, [5-(3,5-dichlorophenylthio)-4-isopropyl-1-nethyl-1H-imidazol-2-yl]acetic acid] | 0.5 to 1 (≈ 1.39 to 2.78 µM) | 10 to 100 (≈ 27.8 to 278 µM) | 3.06 | – | – | –
18 | CC(C)c1nc(CC#N)n(C)c1Sc1cc(Cl)cc(Cl)c1 [Compound I-80a, [5-(3,5-dichlorophenylthio)-4-isopropyl-1-methyl-1H-imidazol-2-yl]acetonitrile] | 0.002 to 0.004 (≈ 0.00588 to 0.0118 µM) | 100 (≈ 294 µM) | 0.323 | – | – | –
19 | CC(C)c1nc(CCOC(N)=O)n(C)c1Sc1cc(Cl)cc(Cl)c1 [Compound I-81, 2-(2-carbamoyloxy)ethyl-5-(3,5-dichlorophenylthio)-4-isopropyl-1-methyl-1H-imidazole] | – | 10 to 100 (≈ 25.8 to 258 µM) | 7.73 | – | 0.13 (≈ 0.335 µM) | –
20 | CC(C)c1nc(CCO)n(C)c1Sc1cc(Cl)cc(Cl)c1 [Compound I-81a, 2-[5-(3,5-dichlorophenylthio)-4-isopropyl-1-methyl-1H-imidazol-2-yl]ethanol] | – | 12.5 (≈ 36.2 µM) | 0.405 | – | 0.001 (≈ 0.0029 µM) | –
21 | CC(C)c1nc(CCN)n(C)c1Sc1cc(Cl)cc(Cl)c1 [Compound I-82, 2-(2-aminoethyl)-5-(3,5-dichlorophenylthio)-4-isopropyl-1-methyl-1H-imidazole] | 0.25 (≈ 0.726 µM) | – | – | 1.5 to 3.2 (≈ 4.36 to 9.29 µM) | – | 1.28
22 | CC(=N)NCc1nc(C(C)C)c(Sc2cc(Cl)cc(Cl)c2)n1C [Compound I-84] | 1 (≈ 2.69 µM) | 1 to 10 (≈ 2.69 to 26.9 µM) | > 269 | – | – | –
23 | CNCc1nc(C(C)C)c(Sc2cc(Cl)cc(Cl)c2)n1C [Compound I-85, 5-(3,5-dichlorophenylthio)-4-isopropyl-1-methyl-2-methylaminomethyl-1H-imidazole] | 0.13 (≈ 0.378 µM) | 1 to 10 (≈ 2.9 to 29 µM) | 7.55 | – | – | –
24 | CC(C)c1nc(CN=C(N)N)n(C)c1Sc1cc(Cl)cc(Cl)c1 [Compound I-86, 2-diaminomethylenemethylaminomethyl-5-(3,5-dichlorophenylthio)-4-isopropyl-1-methylimidazole] | 1 (≈ 2.69 µM) | – | 33.6 | 1 (≈ 2.69 µM) | – | –
25 | CC(C)c1nc(CNS(C)(=O)=O)n(C)c1Sc1cc(Cl)cc(Cl)c1 [Compound I-87, 5-(3,5-dichlorophenylthio)-4-isopropyl-2-methanesulfonylaminomethyl-1-methyl-1H-imidazole] | 0.5 to 1 (≈ 1.22 to 2.45 µM) | 10 to 100 (≈ 24.5 to 245 µM) | > 245 | – | – | –
26 | CNC(=S)NCc1nc(C(C)C)c(Sc2cc(Cl)cc(Cl)c2)n1C [Compound I-89, 5-(3,5-dichlorophenylthio)-4-isopropyl-1-methyl-2-(N-methylthiocarbamoyl)aminomethyl-1H-imidazole] | 1 (≈ 2.48 µM) | 1 to 10 (≈ 2.48 to 24.8 µM) | > 248 | – | – | –
27 | CC(C)c1nc(CNC(N)=O)n(C)c1Sc1cc(Cl)cc(Cl)c1 [Compound I-90, 5-(3,5-dichlorophenylthio)-4-isopropyl-1-methyl-2-ureidomethyl-1H-imidazole] | 0.13 (≈ 0.348 µM) | 10 to 100 (≈ 26.8 to 268 µM) | 6.7 | – | – | –
28 | COC(=O)NCc1nc(C(C)C)c(Sc2cc(Cl)cc(Cl)c2)n1C [Compound I-91, 5-(3,5-dichlorophenylthio)-4-isopropyl-1-methyl-2-methoxycarbonylaminomethyl-1H-imidazole] | 0.06 (≈ 0.155 µM) | 6.3 to 12.5 (≈ 16.2 to 32.2 µM) | 0.876 | – | – | –
